Source: patent US8853207B2 (Development Center for Biotechnology, priority 2012, dated 2014)
Counter-ions that a name gives are not always drawn.

Biological target: FLT3 kinase (FLT3 kinase domain alone, Upstate) (Homo sapiens (Human), UniProt P36888)
Test: FLT3 kinase assay ([33P] incorporation into substrate)
Format: biochemical
Settings: 100 μM ATP, 30° C., 30 minutes; read-out: IC50 against FLT3
Experimental: Inhibition of FLT3 kinase activity by compounds disclosed herein was quantified by measuring the amount of [^33P] incorporated into the substrate in the presence of a test compound. Briefly, a reaction mixture of 25 μL final volume containing 5 ng of FLT3 kinase (FLT3 kinase domain alone, Upstate), 5 μg of the substrate [(Poly (Glu-Tyr, 4:1), Sigma], kinase reaction buffer (20 mM MOPS pH 7.0, 1 mM EDTA, 5% glycerol, 0.01% Brij-35, 0.1% β-mercaptoethanol, 1 mg/mL BSA, 100 μM ATP, 0.1 μCi per well [^33P]-γ-ATP (2,500-3,000 Ci/mmol)), and a test compound (diluted from 9 μM to the desired final concentration by 4% DMSO) or DMSO (as the control) was incubated at 30° C. for 30 minutes. The reaction was stopped by adding 5 μL of 3% phosphoric acid solution. The resultant solution (30 μL) was later harvested by a UniFilter Plate GF/B (PerkinElmer) followed by adding 30 μL of the scintillation cocktail (MicroScint 20, PerkinElmer) to the well. The radioactivity retained on the filter membrane was measured by a luminescence counter (PerkinElmer). The results were analyzed by using linear regression software (GraphPad Prism 4; GraphPad Software Inc.).

Chain of FLT3 kinase (FLT3 kinase domain alone, Upstate) (P36888 610-943): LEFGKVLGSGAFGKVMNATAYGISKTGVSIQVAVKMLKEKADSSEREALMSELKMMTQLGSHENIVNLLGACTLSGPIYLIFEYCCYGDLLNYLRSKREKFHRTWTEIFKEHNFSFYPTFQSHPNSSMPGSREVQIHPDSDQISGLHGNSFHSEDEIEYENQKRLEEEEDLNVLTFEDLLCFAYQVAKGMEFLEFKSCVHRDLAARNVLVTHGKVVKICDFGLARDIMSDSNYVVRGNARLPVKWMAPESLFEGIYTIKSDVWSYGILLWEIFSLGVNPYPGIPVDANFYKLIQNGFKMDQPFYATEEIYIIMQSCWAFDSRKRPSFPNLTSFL

Compound	IC50 [nM]
FC(F)(F)Oc1ccc(Nc2n[nH]c3c2Cc2sccc2-3)cc1 [Example-46, (4,7-Dihydro-1-thia-4,5-diaza-cyclopenta[a]pentalen-6-yl)-(4-trifluoromethoxy-phenyl)-amine]	500 to 1000
Clc1cc(Cl)cc(Nc2n[nH]c3c2Cc2sccc2-3)c1 [Example-49, (3,5-Dichloro-phenyl)-(4,7-dihydro-1-thia-4,5-diaza-cyclopenta[a]pentalen-6-yl)-amine]	100 to 499
O=C1c2sccc2-c2[nH]nc(-c3cccc(Cl)c3)c21 [Example-50, 6-(3-Chloro-phenyl)-4H-1-thia-4,5-diaza-cyclopenta[a]pentalen-7-one]	100 to 499
Clc1ccc(Nc2n[nH]c3c2Cc2sccc2-3)cc1Cl [Example-53, (3,4-Dichloro-phenyl)-(4,7-dihydro-1-thia-4,5-diaza-cyclopenta[a]pentalen-6-yl)-amine]	100 to 499
O=S(=O)(c1ccc(Nc2n[nH]c3c2Cc2sccc2-3)cc1)N1CCCCC1 [Example-55, (4,7-Dihydro-1-thia-4,5-diaza-cyclopenta[a]pentalen-6-yl)-[4-(piperidine-1-sulfonyl)-phenyl]-amine]	100 to 499
Nc1ccc(-c2n[nH]c3c2C(=O)c2sccc2-3)cc1 [Example-56, 6-(4-Amino-phenyl)-4H-1-thia-4,5-diaza-cyclopenta[a]pentalen-7-one]	< 100
c1cc(Nc2ccc(-c3n[nH]c4c3Cc3sccc3-4)cc2)ccn1 [Example-62, [4-(4,7-Dihydro-1-thia-4,5-diaza-cyclopenta[a]pentalen-6-yl)-phenyl]-pyridin-4-yl-amine hydrochloride]	< 100
c1cncc(Nc2ccc(-c3n[nH]c4c3Cc3sccc3-4)cc2)c1 [Example-63, [4-(4,7-Dihydro-1-thia-4,5-diaza-cyclopenta[a]pentalen-6-yl)-phenyl]-pyridin-3-yl-amine]	< 100
COc1ccc(-c2n[nH]c3c2Cc2sc(-c4ccccc4)cc2-3)cc1 [Example-65, 6-(4-Methoxy-phenyl)-2-phenyl-4,7-dihydro-1-thia-4,5-diaza-cyclopenta[a]pentalene]	< 100
Brc1ccc(-c2n[nH]c3c2Cc2sc(Br)cc2-3)cn1 [Example-67, 2-Bromo-6-(6-bromo-pyridin-3-yl)-4,7-dihydro-1-thia-4,5-diaza-cyclopenta[a]pentalene]	100 to 499
O=C1c2sccc2-c2[nH]nc(-c3ccc(Br)nc3)c21 [Example-68, 6-(6-Bromo-pyridin-3-yl)-4H-1-thia-4,5-diaza-cyclopenta[a]pentalen-7-one]	500 to 1000
COc1ccc(-c2n[nH]c3c2Cc2sc(-c4ccc(F)cc4)cc2-3)cc1 [Example-71, 2-(4-Fluoro-phenyl)-6-(4-methoxy-phenyl)-4,7-dihydro-1-thia-4,5-diaza-cyclopenta[a]pentalene]	< 100
COc1ccc(-c2n[nH]c3c2Cc2sc(-c4ccc(F)c(F)c4)cc2-3)cc1 [Example-72, 2-(3,4-Difluoro-phenyl)-6-(4-methoxy-phenyl)-4,7-dihydro-1-thia-4,5-diaza-cyclopenta[a]pentalene]	< 100
COc1ccc(-c2cc3c(s2)Cc2c(-c4ccc(OC)cc4)n[nH]c2-3)cc1 [Example-73, 2,6-Bis-(4-methoxy-phenyl)-4,7-dihydro-1-thia-4,5-diaza-cyclopenta[a]pentalene]	< 100
COc1ccc(-c2n[nH]c3c2Cc2sc(-c4ccc(OC)c(OC)c4)cc2-3)cc1 [Example-74, 2-(3,4-Dimethoxy-phenyl)-6-(4-methoxy-phenyl)-4,7-dihydro-1-thia-4,5-diaza-cyclopenta[a]pentalene]	< 100
COc1ccc(-c2n[nH]c3c2Cc2sc(-c4ccc(O)c(OC)c4)cc2-3)cc1 [Example-75, 2-Methoxy-4-[6-(4-methoxy-phenyl)-4,7-dihydro-1-thia-4,5-diaza-cyclopenta[a]pentalen-2-yl]-phenol]	< 100
COc1ccc(-c2n[nH]c3c2Cc2sc(-c4ccoc4)cc2-3)cc1 [Example-77, 2-Furan-3-yl-6-(4-methoxy-phenyl)-4,7-dihydro-1-thia-4,5-diaza-cyclopenta[a]pentalene]	< 100
COc1ccc(-c2n[nH]c3c2Cc2sc(-c4cnc(N)nc4)cc2-3)cc1 [Example-79, 5-[6-(4-Methoxy-phenyl)-4,7-dihydro-1-thia-4,5-diaza-cyclopenta[a]pentalen-2-yl]-pyrimidin-2-ylamine]	< 100
CN1CCN(c2ccc(-c3n[nH]c4c3Cc3sccc3-4)cc2)CC1 [Example-80, 6-[4-(4-Methyl-piperazin-1-yl)-phenyl]-4,7-dihydro-1-thia-4,5-diaza-cyclopenta[a]pentalene]	< 100
COc1ccc(-c2n[nH]c3c2Cc2sc(-c4ccc(N5CCN(C)CC5)nc4)cc2-3)cc1 [Example-81, 6-(4-Methoxy-phenyl)-2-[6-(4-methyl-piperazin-1-yl)-pyridin-3-yl]-4,7-dihydro-1-thia-4,5-diaza-cyclopenta[a]pentalene]	< 100
COc1ccc(-c2n[nH]c3c2Cc2sc(-c4ccc(OC)c(F)c4)cc2-3)cc1 [Example-83, 2-(3-Fluoro-4-methoxy-phenyl)-6-(4-methoxy-phenyl)-4,7-dihydro-1-thia-4,5-diaza-cyclopenta[a]pentalene]	< 100
c1cc2c(s1)Cc1c(-c3ccc(N4CCOCC4)cc3)n[nH]c1-2 [Example-85, 6-(4-Morpholin-4-yl-phenyl)-4,7-dihydro-1-thia-4,5-diaza-cyclopenta[a]pentalene]	< 100
COc1ccc(-c2n[nH]c3c2Cc2sc(-c4cccc(N)c4)cc2-3)cc1 [Example-86, 3-[6-(4-Methoxy-phenyl)-4,7-dihydro-1-thia-4,5-diaza-cyclopenta[a]pentalen-2-yl]-phenylamine]	< 100
COc1ccc(-c2n[nH]c3c2C(=O)c2sc(-c4ccc(N)nc4)cc2-3)cc1 [Example-87, 2-(6-Amino-pyridin-3-yl)-6-(4-methoxy-phenyl)-4H-1-thia-4,5-diaza-cyclopenta[a]pentalen-7-one]	< 100
Nc1ccc(-c2cc3c(s2)Cc2c(-c4ccc(N5CCOCC5)cc4)n[nH]c2-3)cn1 [Example-88, 5-[6-(4-Morpholin-4-yl-phenyl)-4,7-dihydro-1-thia-4,5-diaza-cyclopenta[a]pentalen-2-yl]-pyridin-2-Ylamine hydrochloride]	< 100

The remaining lines, values ahead:

IC50 [nM]	Compound
> 1000	Brc1ccccc1-c1n[nH]c2c1Cc1sccc1-2 [Example-44, 6-(2-Bromo-phenyl)-4,7-dihydro-1-thia-4,5-diaza-cyclopenta[a]pentalene]
100 to 499	COc1ccccc1Nc1n[nH]c2c1Cc1sccc1-2 [Example-45, (4,7-Dihydro-1-thia-4,5-diaza-cyclopenta[a]pentalen-6-yl)-(2-methoxy-phenyl)-amine]
< 100	Brc1cccc(-c2n[nH]c3c2Cc2sccc2-3)c1 [Example-47, 6-(3-Bromo-phenyl)-4,7-dihydro-1-thia-4,5-diaza-cyclopenta[a]pentalene]
> 1000	FC(F)(F)Oc1ccccc1Nc1n[nH]c2c1Cc1sccc1-2 [Example-48, (4,7-Dihydro-1-thia-4,5-diaza-cyclopenta[a]pentalen-6-yl)-(2-trifluoromethoxy-phenyl)-amine]
< 100	COc1ccccc1-c1n[nH]c2c1Cc1sccc1-2 [Example-51, 6-(2-Methoxy-phenyl)-4,7-dihydro-1-thia-4,5-diaza-cyclopenta[a]pentalene]
100 to 499	Clc1cccc(Nc2n[nH]c3c2Cc2sccc2-3)c1Cl [Example-54, (2,3-Dichloro-phenyl)-(4,7-dihydro-1-thia-4,5-diaza-cyclopenta[a]pentalen-6-yl)-amine]
100 to 499	Clc1cc(Cl)cc(-c2n[nH]c3c2Cc2sccc2-3)c1 [Example-57, 6-(3,5-Dichloro-phenyl)-4,7-dihydro-1-thia-4,5-diaza-cyclopenta[a]pentalene]
100 to 499	c1ccc(-c2n[nH]c3c2Cc2sccc2-3)nc1 [Example-58, 6-Pyridin-2-yl-4,7-dihydro-1-thia-4,5-diaza-cyclopenta[a]pentalene]
100 to 499	Nc1cccc(-c2n[nH]c3c2Cc2sccc2-3)c1 [Example-59, 3-(4,7-Dihydro-1-thia-4,5-diaza-cyclopenta[a]pentalen-6-yl)-phenylamine hydrochloride]
< 100	c1cc(-c2n[nH]c3c2Cc2sccc2-3)ccn1 [Example-60, 6-Pyridin-4-yl-4,7-dihydro-1-thia-4,5-diaza-cyclopenta[a]pentalene]
100 to 499	[O-][n+]1ccc(-c2n[nH]c3c2Cc2sccc2-3)cc1 [Example-61, 6-(1-Oxy-pyridin-4-yl)-4,7-dihydro-1-thia-4,5-diaza-cyclopenta[a]pentalene]
100 to 499	Brc1ccc(-c2n[nH]c3c2Cc2sccc2-3)cn1 [Example-64, 6-(6-Bromo-pyridin-3-yl)-4,7-dihydro-1-thia-4,5-diaza-cyclopenta[a]pentalene]
< 100	Nc1ccc(-c2n[nH]c3c2Cc2sccc2-3)cn1 [Example-66, 5-(4,7-Dihydro-1-thia-4,5-diaza-cyclopenta[a]pentalen-6-yl)-pyridin-2-ylamine hydrochloride]
100 to 499	c1cc2c(s1)Cc1c(-c3ccc(N4CCCC4)cc3)n[nH]c1-2 [Example-84, 6-(4-Pyrrolidin-1-yl-phenyl)-4,7-dihydro-1-thia-4,5-diaza-cyclopenta[a]pentalene]
